Consider 27 compounds from US12351648B2, “Methods of inhibiting MASP-2 for the treatment and/or prevention of coronavirus-induced acute respiratory distress syndrome” (priority 2020, dated 2025).

Assay [1] deals with T1, mMASP-2 (Mus musculus (Mouse), UniProt Q91WP0). Kind of assay: Enzymatic assay for mMASP-2 (Ki). It counts as biochemical.
The target of another assay is MASP-2 (CCP1-CCP2-SP) (Homo sapiens (Human), UniProt O00187). Description: Enzymatic assay for MASP-2 (fluorogenic substrate). It counts as biochemical. As to conditions: for MASP-2 vs. thrombin selectivity: MASP-2 inhibition versus thrombin.
For the next assay, the system named is lectin pathway. Kind of assay: Lectin pathway activation assay in 1% human serum (C3 deposition on mannan, ELISA). The class given is biochemical.
Assay [2] concerns the target T1, mMASP-2. Kind of assay: Enzymatic assay for mMASP-2 (Ki). It counts as biochemical. The source holds these as a separate data set.
Another assay deals with human α-thrombin (Homo sapiens (Human), UniProt P00734). Kind of assay: Enzymatic assay for thrombin (Boc-VPR-AMC). It counts as biochemical.
For the next assay, the system named is COVID-19 patients. The note with it: cited from earlier work; for 28-day mortality: […] with usual care.
The mark [3] stands for this setting: Thrombin Ki, human α-thrombin, Boc-VPR-AMC.
The mark [4] stands for this setting: human α-thrombin, Boc-VPR-AMC, read-out: Thrombin Ki.
[5] abbreviates: oxygen support without invasive mechanical ventilation.

Like-named read-outs stand apart in the source and are kept apart here. Non-standard residues stand in square brackets, D forms with d. Residues, ends and D or L forms follow the SMILES beside them. *: point of attachment. dChg = N[C@@H](C(=O)O)C1CCCCC1; Agmatine = N=C(N)NCCCCN*; Aze = O=C(O)[C@@H]1CCN1

MASP-2 (CCP1-CCP2-SP), sequence (O00187 287-686): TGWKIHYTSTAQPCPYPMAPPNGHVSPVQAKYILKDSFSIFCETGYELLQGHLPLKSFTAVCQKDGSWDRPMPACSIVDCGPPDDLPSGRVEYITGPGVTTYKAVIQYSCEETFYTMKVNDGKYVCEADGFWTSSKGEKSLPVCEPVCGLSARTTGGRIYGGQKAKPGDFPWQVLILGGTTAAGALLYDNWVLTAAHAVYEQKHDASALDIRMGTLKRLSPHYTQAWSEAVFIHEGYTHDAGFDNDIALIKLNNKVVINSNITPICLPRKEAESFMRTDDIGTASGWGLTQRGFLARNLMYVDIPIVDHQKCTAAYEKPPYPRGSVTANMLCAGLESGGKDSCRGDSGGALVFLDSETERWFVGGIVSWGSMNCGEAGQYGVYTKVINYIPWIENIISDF
T1 sequence (Q91WP0 20-685): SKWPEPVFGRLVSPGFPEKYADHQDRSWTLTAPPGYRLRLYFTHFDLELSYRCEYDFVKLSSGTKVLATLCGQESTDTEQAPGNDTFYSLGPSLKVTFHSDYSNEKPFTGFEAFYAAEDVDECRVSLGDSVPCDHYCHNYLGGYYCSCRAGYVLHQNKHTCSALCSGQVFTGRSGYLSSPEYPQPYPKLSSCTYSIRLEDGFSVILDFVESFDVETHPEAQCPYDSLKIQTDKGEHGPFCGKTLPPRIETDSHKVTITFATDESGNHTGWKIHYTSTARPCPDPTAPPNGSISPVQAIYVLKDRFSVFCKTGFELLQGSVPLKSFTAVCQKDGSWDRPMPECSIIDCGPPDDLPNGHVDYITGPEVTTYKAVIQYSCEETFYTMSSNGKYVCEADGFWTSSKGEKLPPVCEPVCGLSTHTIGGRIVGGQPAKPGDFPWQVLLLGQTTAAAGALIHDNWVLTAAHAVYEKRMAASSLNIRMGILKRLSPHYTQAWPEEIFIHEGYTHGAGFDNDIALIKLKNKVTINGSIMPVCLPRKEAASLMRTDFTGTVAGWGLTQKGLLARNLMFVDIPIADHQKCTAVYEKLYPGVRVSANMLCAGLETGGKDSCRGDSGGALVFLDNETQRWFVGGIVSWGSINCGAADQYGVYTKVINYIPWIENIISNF

In general, Ki refers to a measure of affinity in units of concentration, obtained from inhibition or displacement. For `Cc1nc(N)ccc1CNC(=O)[C@H](C)NC(=O)[C@H]1C[C@@H](c2ccccc2)CCN1CC(=O)O` [Compound 1398], the inhibition constant (Ki) at mMASP-2 [1] is under 500 nM.
For `N=C(N)NCCCCNC(=O)[C@@H]1CCN1C(=O)[C@H](N)C1CCCCC1` [Compound 1006] (H-[dChg]-[Aze]-Agmatine), the “MASP-2 vs. thrombin selectivity” value at MASP-2 (CCP1-CCP2-SP) is reported as “— (less than 1.0-fold)”.
Still for that read-out and setting: the same measure for `C[C@H](NC(=O)[C@@H](CCc1ccccc1)NCc1ccc(O)cc1)C(=O)NCc1ccc(C(=N)N)cc1` [Compound 1140]: “— (less than 1.0-fold)”; for `Cc1nc(N)ccc1CNC(=O)[C@H](C)NC(=O)[C@H]1C[C@H](Cc2ccc3ccccc3c2)CN1` [Compound 1338]: “*** (≥25 to <100-fold)”; for `C[C@H](NC(=O)[C@@H](CCc1ccccc1)NC1CCCCC1)C(=O)NCc1ccc(C(=N)N)cc1` [Compound 1130]: “— (less than 1.0-fold)”.
A word on the IC50: it is the concentration at which inhibition is half-maximal. For the compound `C[C@H](NC(=O)[C@H](N)CCc1ccccc1)C(=O)NCc1ccc2nc(N)[nH]c2c1` [Compound 1040], the half-maximal inhibitory concentration (IC50) with lectin pathway (read-out: Lectin Pathway IC50) is 500 to 5000 nM. The Ki on mMASP-2 [2] is under 500 nM; at human α-thrombin (setting [3]), over 25 µM; at MASP-2 (CCP1-CCP2-SP) (read-out: MASP-2 Ki) it was under 0.5 µM. For the same compound, the “MASP-2 vs. thrombin selectivity” value on MASP-2 (CCP1-CCP2-SP) is recorded as “**** (>100-fold)”.
Turning to `N=C(N)c1ccc(CNC(=O)Cn2c(=O)n(Cc3ccccc3)c(=O)c3ccc(C(=O)NC4CCCCC4)cc32)cc1` [Compound 2021], the concentration for half-maximal inhibition (IC50) in the assay with lectin pathway (read-out: Lectin Ki (Lectin Pathway Inhibition, IC50)) was 5000 to 50000 nM.
Regarding `C[C@H](NC(=O)C1CC(c2ccccc2)CCN1)C(=O)NCc1ccc(N)nc1` (stereo partly drawn) [Compound 1025], the half-inhibitory concentration (IC50) in the assay with lectin pathway (read-out: Lectin Pathway IC50) lay in the range of 500 to 5000 nM. For the same compound, on human α-thrombin (setting [3]), the Ki is over 25 µM.
As for `C[C@H](NC(=O)[C@H]1C[C@H](Cc2cccc3ccccc23)CN1)C(=O)NCc1cc(Cl)ccc1-n1cnnn1` [Compound 1414], the “MASP-2 vs. thrombin selectivity” value on MASP-2 (CCP1-CCP2-SP) is on record as “— (<1.0-fold)”.
`C[C@H](NC(=O)[C@@H](CCc1ccccc1)NCc1ccc(F)cc1)C(=O)NCc1ccc(C(=N)N)cc1` [Compound 1141]: the Ki on human α-thrombin (setting [4]) and at MASP-2 (CCP1-CCP2-SP) (read-out: MASP-2 Ki) was under 0.5 µM in each case. In addition, on MASP-2 (CCP1-CCP2-SP), the “MASP-2 vs. thrombin selectivity” value is “— (less than 1.0-fold)”.
Regarding `C[C@H](NC(=O)[C@H]1C[C@H](Cc2ccccc2)CN1)C(=O)NCc1cnc2[nH]cc(Cl)c2c1` [Compound 1334], the “MASP-2 vs. thrombin selectivity” value at MASP-2 (CCP1-CCP2-SP) is “— (<1.0-fold)”.
Same read-out and setting: then `C[C@H](NC(=O)[C@H](N)CCc1ccccc1)C(=O)NCc1cc(Cl)ccc1-n1cnnn1` [Compound 1325], with “— (<1.0-fold)”.
`C[C@H](NC(=O)C1CC(c2ccccc2)CCN1)C(=O)NCc1ccc(C(=N)N)cc1` (stereo partly drawn) [Compound 1065]: in the assay on lectin pathway (read-out: Lectin Pathway IC50), the IC50 was under 50 nM. In addition, on mMASP-2 [2], the Ki was under 500 nM.
In the case of `CCCCOC(=O)NC(=N)c1ccc(CNC(=O)[C@H](C)NC(=O)[C@H]2C[C@H](c3ccccc3)CN2)cc1` [Compound 1260], the values for the Ki on human α-thrombin (Thrombin Ki (μM)) and on MASP-2 (CCP1-CCP2-SP) (MASP-2 Ki (μM)) were over 25 µM and 2.5 to 10 µM, respectively.
For `C[C@@H]1C[C@H]2[C@@H]3CCC4=CC(=O)C=C[C@]4(C)[C@@]3(F)[C@@H](O)C[C@]2(C)[C@@]1(O)C(=O)CO` [dexamethasone], the 28-day mortality with COVID-19 patients (invasive mechanical ventilation) is on record as 29.0%; with COVID-19 patients (no respiratory support at randomization) it was 17.0%; with COVID-19 patients (setting [5]), 21.5%. The “Reduction of 28-day mortality” value with COVID-19 patients (setting [5]) is 14%; with COVID-19 patients (patients on invasive mechanical ventilation) it was 28.7%.
For the compound `Cc1nc(N)ccc1CNC(=O)[C@H](C)NC(=O)[C@H]1C[C@H](c2cccc(-c3ccccc3)c2)CN1` [Compound 1360], the half-maximal inhibitory concentration (IC50) with lectin pathway (read-out: Lectin Pathway IC50) fell in the range of 50 to 500 nM. The Ki on mMASP-2 [1] was under 500 nM; at human α-thrombin (Thrombin Ki (μM)), over 25 µM.
Take `N=C(N)c1ccc(CNC(=O)[C@@H]2CCCN2C(=O)[C@H](N)C2CCCCC2)cc1` [Compound 1027]: on MASP-2 (CCP1-CCP2-SP), the “MASP-2 vs. thrombin selectivity” value is recorded as “— (less than 1.0-fold)”.
Still for that read-out and setting: then `C[C@H](NC(=O)[C@H](N)CCc1ccccc1)C(=O)NCc1ccc(C(=N)N)cc1` [Compound 1218], with “— (less than 1.0-fold)”.
`C[C@H](NC(=O)[C@H]1CCc2ccccc2N1)C(=O)NCc1ccc(C(=N)N)cc1` [Compound 1215] came in with a Ki on mMASP-2 [2] of under 25000 nM.
Regarding `N=C(N)c1ccc2[nH]c(Cc3nc4ccccc4[nH]3)nc2c1` [Compound 2015], on MASP-2 (CCP1-CCP2-SP) (MASP-2 Ki (μM), −Zn), the inhibition constant (Ki) is under 10 µM.
As to `Cc1nc(N)ccc1CNC(=O)[C@@H](C)NC(=O)[C@H]1C[C@H](c2cccc(-c3ccccc3)c2)CN1` [Compound 1359], the Ki was 10000 to 25000 nM at mMASP-2 [1] and over 25 µM on human α-thrombin (Thrombin Ki (μM)).
Consider `CC[C@H](NC(=O)[C@H](N)CCc1ccccc1)C(=O)NCc1ccc(C(=N)N)cc1` [Compound 1289], for which the “MASP-2 vs. thrombin selectivity” value on MASP-2 (CCP1-CCP2-SP) is “— (<1.0-fold)”.
Take `C[C@H](NC(=O)[C@H](N)CCc1ccc(F)cc1)C(=O)NCc1ccc(C(=N)N)cc1` [Compound 1047]: on human α-thrombin (setting [4]), the inhibition constant Ki is under 2.5 µM.
Regarding `C[C@H](NC(=O)[C@@H](CCc1ccccc1)NCc1cc2ccccc2[nH]1)C(=O)NCc1ccc(C(=N)N)cc1` [Compound 1143], the values for the Ki at mMASP-2 [2], at human α-thrombin (setting [4]) and on MASP-2 (CCP1-CCP2-SP) (read-out: MASP-2 Ki) were under 500 nM, under 0.5 µM and under 0.5 µM, respectively. Further, the “MASP-2 vs. thrombin selectivity” value at MASP-2 (CCP1-CCP2-SP) is recorded as “— (less than 1.0-fold)”.
Compound `Cc1nc(N)ccc1CNC(=O)[C@H](C)NC(=O)[C@H]1CC(Cc2ccc(F)cc2)(Cc2ccc(F)cc2)CN1` [Compound 1480] returned a Ki at mMASP-2 [1] of under 500 nM.
As to `COC(=O)CCCCCN[C@H](CCc1ccccc1)C(=O)N[C@@H](C)C(=O)NCc1ccc(C(=N)N)cc1` [Compound 1142], the inhibition constant Ki at human α-thrombin (setting [4]) and at MASP-2 (CCP1-CCP2-SP) (read-out: MASP-2 Ki) was under 0.5 µM each time. Further, on MASP-2 (CCP1-CCP2-SP), the “MASP-2 vs. thrombin selectivity” value is recorded as “* (1.0 to 5.0-fold)”.
For `CCOC(=O)COc1ccc(Cl)cc1CNC(=O)[C@H](C)NC(=O)[C@H](N)CCc1ccccc1` [Compound 1229], on human α-thrombin (setting [4]), the Ki was under 10 µM.
